Structures are written as SMILES. Like-named read-outs stand apart in the source and are kept apart here.

The test concerns RS4; 11 with G101V mutation. Description: In vitro anti-proliferation assay (ATPlite luminescence) in BCL-2-dependent ALL cell line RS4;11 with G101V mutation. The format is cell-based. The conditions noted are these: read-out: RS411-G101V IC50. In short, it runs like this:
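RS4;11 G101V cells at about 1×10^4 per well were exposed to a range of compound concentrations for about 72 h in medium with 10% FBS. Cellular ATP was measured by ATPlite luminescence after lysis, and IC50 was derived from the dose-response.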
For orientation: Cellular ATP, detected with luciferase, serves as a proxy for viable cell number.

Setting [1] is: cellular anti-proliferative IC50, about 72 hours, medium with 10% FBS, ATPlite.

Take `Cc1ccccc1[C@@H]1CN(CC2CCOCC2)CCN1C1CC2(CCN(c3ccc(C(=O)NS(=O)(=O)c4cc5c(c([N+](=O)[O-])c4)N[C@H](C4CCOCC4)CO5)c(N4c5cc6cc[nH]c6nc5O[C@H]5COCC[C@@H]54)c3)CC2)C1` [Example 184, 2-[(3R,8S)-2,5-dioxa-9,15,17-triazatetracyclo[8.7.0.0^{3,8}.0^{12,16}]heptadeca-1(10),11,13,16-tetraen-9-yl]-4-{2-[(2R)-2-(2-methylphenyl)-4-(oxan-4-ylmethyl)piperazin-1-yl]-7-azaspiro[3.5]nonan-7-yl}-N-[(3R)-5-nitro-3-(oxan-4-yl)-3,4-dihydro-2H-1,4-benzoxazin-7-ylsulfonyl]benzamide]: the IC50 under setting [1] is 40.6 nM.
Take `CC(C)Oc1ccccc1[C@H]1CN(Cc2ccc(F)c(F)c2)CCN1C1CC2(CCN(c3ccc(C(=O)NS(=O)(=O)c4ccc(NCC5CCOCC5)c([N+](=O)[O-])c4)c(N4c5cc6cc[nH]c6nc5O[C@H]5COCC[C@@H]54)c3)CC2)C1` [Example 185, 4-{2-[(2S)-4-[(3,4-difluorophenyl)methyl]-2-(2-isopropoxyphenyl)piperazin-1-yl]-7-azaspiro[3.5]nonan-7-yl}-2-[(3R,8S)-2,5-dioxa-9,15,17-triazatetracyclo[8.7.0.0^{3,8}.0^{12,16}]heptadeca-1(10),11,13,16-tetraen-9-yl]-N-{3-nitro-4-[(oxan-4-ylmethyl)amino]benzenesulfonyl}benzamide]: under setting [1], the IC50 turned out to be 112 nM.
Same read-out and setting: for `CC(C)Oc1ccccc1[C@@H]1CN(Cc2ccc(F)c(F)c2)CCN1C1CC2(CCN(c3ccc(C(=O)NS(=O)(=O)c4ccc(NCC5CCOCC5)c([N+](=O)[O-])c4)c(N4c5cc6cc[nH]c6nc5O[C@H]5COCC[C@@H]54)c3)CC2)C1` [Example 186, 4-{2-[(2R)-4-[(3,4-difluorophenyl)methyl]-2-(2-isopropoxyphenyl)piperazin-1-yl]-7-azaspiro[3.5]nonan-7-yl}-2-[(3R,8S)-2,5-dioxa-9,15,17-triazatetracyclo[8.7.0.0^{3,8}.0^{12,16}]heptadeca-1(10),11,13,16-tetraen-9-yl]-N-{3-nitro-4-[(oxan-4-ylmethyl)amino]benzenesulfonyl}benzamide] the value was 10.6 nM; for `COc1cc(CN2CCN(C3CC4(CCN(c5ccc(C(=O)NS(=O)(=O)c6cc7c(c([N+](=O)[O-])c6)N[C@H](C6CCOCC6)CO7)c(N6c7cc8cc[nH]c8nc7O[C@H]7COCC[C@@H]76)c5)CC4)C3)[C@H](c3ccccc3C)C2)cnc1N1CCOC[C@@H]1C` [Example 187, 2-[(3R,8S)-2,5-dioxa-9,15,17-triazatetracyclo[8.7.0.0^{3,8}.0^{12,16}]heptadeca-1(10),11,13,16-tetraen-9-yl]-4-{2-[(2R)-4-({5-methoxy-6-[(3S)-3-methylmorpholin-4-yl]pyridin-3-yl}methyl)-2-(2-methylphenyl)piperazin-1-yl]-7-azaspiro[3.5]nonan-7-yl}-N-[(3R)-5-nitro-3-(oxan-4-yl)-3,4-dihydro-2H-1,4-benzoxazin-7-ylsulfonyl]benzamide], 2.04 nM; for `COc1cc(CN2CCN(C3CC4(CCN(c5ccc(C(=O)NS(=O)(=O)c6cc7c(c([N+](=O)[O-])c6)N[C@H](C6CCOCC6)CO7)c(N6c7cc8cc[nH]c8nc7O[C@H]7COCC[C@@H]76)c5)CC4)C3)[C@H](c3ccccc3C)C2)cnc1N1CCOC[C@H]1C` [Example 188, 2-[(3R,8S)-2,5-dioxa-9,15,17-triazatetracyclo[8.7.0.0^{3,8}.0^{12,16}]heptadeca-1(10),11,13,16-tetraen-9-yl]-4-{2-[(2R)-4-({5-methoxy-6-[(3R)-3-methylmorpholin-4-yl]pyridin-3-yl}methyl)-2-(2-methylphenyl)piperazin-1-yl]-7-azaspiro[3.5]nonan-7-yl}-N-[(3R)-5-nitro-3-(oxan-4-yl)-3,4-dihydro-2H-1,4-benzoxazin-7-ylsulfonyl]benzamide], 11.1 nM.
On the same count and under the same terms, for `Cc1ccccc1[C@@H]1CN(Cc2cnc(N3CCOC[C@@H]3C)c(F)c2)CCN1C1CC2(CCN(c3ccc(C(=O)NS(=O)(=O)c4cc5c(c([N+](=O)[O-])c4)N[C@H](C4CCOCC4)CO5)c(N4c5cc6cc[nH]c6nc5O[C@H]5COCC[C@@H]54)c3)CC2)C1` [Example 189, 2-[(3R,8S)-2,5-dioxa-9,15,17-triazatetracyclo[8.7.0.0^{3,8}.0^{12,16}]heptadeca-1(10),11,13,16-tetraen-9-yl]-4-{2-[(2R)-4-({5-fluoro-6-[(3S)-3-methylmorpholin-4-yl]pyridin-3-yl}methyl)-2-(2-methylphenyl)piperazin-1-yl]-7-azaspiro[3.5]nonan-7-yl}-N-[(3R)-5-nitro-3-(oxan-4-yl)-3,4-dihydro-2H-1,4-benzoxazin-7-ylsulfonyl]benzamide] the value was 36.8 nM.
Take `Cc1ccccc1[C@@H]1CN(Cc2cnc(N3CCOC[C@@H]3C)c(OC(C)C)c2)CCN1C1CC2(CCN(c3ccc(C(=O)NS(=O)(=O)c4cc5c(c([N+](=O)[O-])c4)N[C@H](C4CCOCC4)CO5)c(N4c5cc6cc[nH]c6nc5O[C@H]5COCC[C@@H]54)c3)CC2)C1` [Example 190, 4-(2-((R)-4-((5-isopropoxy-6-((S)-3-methylmorpholino)pyridin-3-yl)methyl)-2-(o-tolyl)piperazin-1-yl)-7-azaspiro[3.5]nonan-7-yl)-N-(((R)-5-nitro-3-(tetrahydro-2H-pyran-4-yl)-3,4-dihydro-2H-benzo[b][1,4]oxazin-7-yl)sulfonyl)-2-((5aS,9aR)-6,7,9,9a-tetrahydro-1H-pyrano[3,4-b]pyrrolo[3′,2′:5,6]pyrido[3,2-e][1,4]oxazin-5(5aH)-yl)benzamide]: the IC50 (Homo sapiens, RS4-11, 72 h) is 11.1 nM.
With `Cc1cc2c(CN3CCN(C4CC5(CCN(c6ccc(C(=O)NS(=O)(=O)c7cc8c(c([N+](=O)[O-])c7)N[C@H](C7CCOCC7)CO8)c(N7c8cc9cc[nH]c9nc8O[C@H]8COCC[C@@H]87)c6)CC5)C4)[C@H](c4ccccc4C)C3)cnc(N3CCOC[C@@H]3C)c2o1` [Example 191, 2-[(3R,8S)-2,5-dioxa-9,15,17-triazatetracyclo[8.7.0.0^{3,8}.0^{12,16}]heptadeca-1(10),11,13,16-tetraen-9-yl]-4-{2-[(2R)-4-({2-methyl-7-[(3S)-3-methylmorpholin-4-yl]furo[2,3-c]pyridin-4-yl}methyl)-2-(2-methylphenyl)piperazin-1-yl]-7-azaspiro[3.5]nonan-7-yl}-N-[(3R)-5-nitro-3-(oxan-4-yl)-3,4-dihydro-2H-1,4-benzoxazin-7-ylsulfonyl]benzamide], the IC50 under setting [1] worked out at 14.2 nM.
For `Cc1ccccc1[C@@H]1CN(Cc2cnc(N3CCOCC3)c3c2C(C)(C)CCO3)CCN1C1CC2(CCN(c3ccc(C(=O)NS(=O)(=O)c4cc5c(c([N+](=O)[O-])c4)N[C@H](C4CCOCC4)CO5)c(N4c5cc6cc[nH]c6nc5O[C@H]5COCC[C@@H]54)c3)CC2)C1` [Example 192, 4-{2-[(2R)-4-{[4,4-dimethyl-8-(morpholin-4-yl)-2H,3H-pyrano[2,3-c]pyridin-5-yl]methyl}-2-(2-methylphenyl)piperazin-1-yl]-7-azaspiro[3.5]nonan-7-yl}-2-[(3R,8S)-2,5-dioxa-9,15,17-triazatetracyclo[8.7.0.0^{3,8}.0^{12,16}]heptadeca-1(10),11,13,16-tetraen-9-yl]-N-[(3R)-5-nitro-3-(oxan-4-yl)-3,4-dihydro-2H-1,4-benzoxazin-7-ylsulfonyl]benzamide], under setting [1], the IC50 worked out at 2.41 nM.

As usually defined, the IC50 is the point on the concentration scale where inhibition reaches its midpoint.
